Results from ChEMBL document CHEMBL5465560, “Selectivity Literature for EUbOPEN Chemogenomic Library” (2024).
Values belong to the compound of their own block, whether it stands above or below them.

Columns and labels:
[1] = biological target: T1, Tyrosine-protein kinase BTK (Homo sapiens, UniProt Q06187); assay: Selectivity interaction (ActivX KiNativ screen (kinase selectivity in THP-1 cell lysates)) EUB0000639a BTK; format: subcellular; conditions: lysate, at 0.01 µM
[2] = biological target: T2, Inhibitor of nuclear factor kappa-B kinase subunit alpha (Homo sapiens) (UniProt O15111); assay: Selectivity interaction (ActivX KiNativ screen (kinase selectivity in THP-1 cell lysates)) EUB0000639a CHUK; format: subcellular; conditions: lysate
T2 sequence (whole entry): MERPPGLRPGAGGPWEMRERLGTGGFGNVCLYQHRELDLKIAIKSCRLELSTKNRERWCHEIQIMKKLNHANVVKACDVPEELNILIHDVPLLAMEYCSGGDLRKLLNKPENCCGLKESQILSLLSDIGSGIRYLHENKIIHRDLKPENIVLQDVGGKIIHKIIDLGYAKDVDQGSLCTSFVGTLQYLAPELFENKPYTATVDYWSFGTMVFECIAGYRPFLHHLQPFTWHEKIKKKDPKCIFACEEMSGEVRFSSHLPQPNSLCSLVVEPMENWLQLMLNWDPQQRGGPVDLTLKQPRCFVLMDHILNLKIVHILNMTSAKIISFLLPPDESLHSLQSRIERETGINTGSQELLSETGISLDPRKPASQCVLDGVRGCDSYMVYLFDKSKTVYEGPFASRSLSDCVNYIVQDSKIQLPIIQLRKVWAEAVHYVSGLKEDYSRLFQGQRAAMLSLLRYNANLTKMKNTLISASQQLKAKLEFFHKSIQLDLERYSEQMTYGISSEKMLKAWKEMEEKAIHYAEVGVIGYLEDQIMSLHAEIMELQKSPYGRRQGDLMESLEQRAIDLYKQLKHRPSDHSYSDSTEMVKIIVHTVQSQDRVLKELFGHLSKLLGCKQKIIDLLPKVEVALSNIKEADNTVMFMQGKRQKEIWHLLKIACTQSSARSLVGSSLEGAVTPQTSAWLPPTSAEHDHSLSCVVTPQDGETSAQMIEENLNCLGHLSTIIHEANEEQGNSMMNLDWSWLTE

[3] = biological target: Tyrosine-protein kinase Fyn (Homo sapiens) (UniProt P06241); assay: Selectivity interaction (ActivX KiNativ screen (kinase selectivity in THP-1 cell lysates)) EUB0000639a FYN; format: subcellular; conditions: lysate
Sequence of Tyrosine-protein kinase Fyn (Homo sapiens) (P06241 2-537 limits assumed): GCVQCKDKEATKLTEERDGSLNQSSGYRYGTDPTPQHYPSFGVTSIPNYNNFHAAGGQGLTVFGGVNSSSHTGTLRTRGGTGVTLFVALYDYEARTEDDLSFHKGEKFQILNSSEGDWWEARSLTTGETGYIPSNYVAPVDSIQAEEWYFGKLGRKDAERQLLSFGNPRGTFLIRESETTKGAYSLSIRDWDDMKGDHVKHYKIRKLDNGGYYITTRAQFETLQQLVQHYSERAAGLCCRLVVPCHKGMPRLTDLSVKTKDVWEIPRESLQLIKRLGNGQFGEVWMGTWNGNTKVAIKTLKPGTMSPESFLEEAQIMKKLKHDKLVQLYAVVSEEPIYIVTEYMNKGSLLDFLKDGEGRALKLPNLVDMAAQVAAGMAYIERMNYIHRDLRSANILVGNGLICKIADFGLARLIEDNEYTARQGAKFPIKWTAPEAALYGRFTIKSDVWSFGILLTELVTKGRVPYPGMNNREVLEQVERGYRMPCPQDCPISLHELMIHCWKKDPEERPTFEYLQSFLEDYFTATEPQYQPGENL

[4] = biological target: Cyclin-dependent kinase 5/CDK5 activator 1 (Homo sapiens) (UniProt Q00535+Q15078); assay: Selectivity interaction (ProQinase) EUB0000171b CDK5; format: protein-complex assay
Sequence of Cyclin-dependent kinase 5/CDK5 activator 1 (Homo sapiens) (Q00535 whole entry): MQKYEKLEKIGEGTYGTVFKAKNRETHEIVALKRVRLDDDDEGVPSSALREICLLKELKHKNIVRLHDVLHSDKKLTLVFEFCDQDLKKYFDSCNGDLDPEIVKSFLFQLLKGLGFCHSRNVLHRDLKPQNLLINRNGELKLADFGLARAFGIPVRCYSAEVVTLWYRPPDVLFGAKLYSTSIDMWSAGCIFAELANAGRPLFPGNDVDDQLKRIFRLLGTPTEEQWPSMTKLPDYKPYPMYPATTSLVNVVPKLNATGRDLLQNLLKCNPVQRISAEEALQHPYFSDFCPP
Sequence of Cyclin-dependent kinase 5/CDK5 activator 1 (Homo sapiens) (Q15078 99-307 partner limits assumed): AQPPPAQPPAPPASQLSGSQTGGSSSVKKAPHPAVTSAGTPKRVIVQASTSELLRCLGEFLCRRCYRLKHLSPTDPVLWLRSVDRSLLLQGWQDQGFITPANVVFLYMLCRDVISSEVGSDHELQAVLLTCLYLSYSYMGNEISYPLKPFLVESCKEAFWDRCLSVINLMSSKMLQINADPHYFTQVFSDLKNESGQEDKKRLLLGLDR

[5] = biological target: T3, Mitogen-activated protein kinase kinase kinase 2 (Homo sapiens) (UniProt Q9Y2U5); assay: Selectivity interaction (ActivX KiNativ screen (ex vivo kinase selectivity in human PBMCs)) EUB0001619a MAP3K2; format: cell-based; conditions: PBMC, at 1 µM
T3 sequence (whole entry): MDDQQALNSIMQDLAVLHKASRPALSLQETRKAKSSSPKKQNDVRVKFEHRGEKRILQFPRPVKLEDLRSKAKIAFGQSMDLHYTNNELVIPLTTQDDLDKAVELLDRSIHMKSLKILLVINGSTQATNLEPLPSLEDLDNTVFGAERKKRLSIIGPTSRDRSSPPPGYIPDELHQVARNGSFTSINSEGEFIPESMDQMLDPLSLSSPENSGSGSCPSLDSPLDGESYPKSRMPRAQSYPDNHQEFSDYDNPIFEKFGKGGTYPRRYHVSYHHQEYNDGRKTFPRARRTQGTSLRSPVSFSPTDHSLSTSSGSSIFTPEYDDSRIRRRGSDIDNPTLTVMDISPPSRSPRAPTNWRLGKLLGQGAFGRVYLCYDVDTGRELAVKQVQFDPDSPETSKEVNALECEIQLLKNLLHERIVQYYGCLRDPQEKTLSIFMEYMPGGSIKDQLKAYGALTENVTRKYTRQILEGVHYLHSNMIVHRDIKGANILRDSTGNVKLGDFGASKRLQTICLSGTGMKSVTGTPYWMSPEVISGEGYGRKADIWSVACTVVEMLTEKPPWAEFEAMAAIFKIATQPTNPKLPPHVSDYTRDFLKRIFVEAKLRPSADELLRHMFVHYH

[6] = biological target: Mitogen-activated protein kinase 10 (Homo sapiens, UniProt P53779); assay: Selectivity interaction (Kinase panel (DSF assay)) EUB0001559a MAPK10
Sequence of Mitogen-activated protein kinase 10 (P53779 whole entry): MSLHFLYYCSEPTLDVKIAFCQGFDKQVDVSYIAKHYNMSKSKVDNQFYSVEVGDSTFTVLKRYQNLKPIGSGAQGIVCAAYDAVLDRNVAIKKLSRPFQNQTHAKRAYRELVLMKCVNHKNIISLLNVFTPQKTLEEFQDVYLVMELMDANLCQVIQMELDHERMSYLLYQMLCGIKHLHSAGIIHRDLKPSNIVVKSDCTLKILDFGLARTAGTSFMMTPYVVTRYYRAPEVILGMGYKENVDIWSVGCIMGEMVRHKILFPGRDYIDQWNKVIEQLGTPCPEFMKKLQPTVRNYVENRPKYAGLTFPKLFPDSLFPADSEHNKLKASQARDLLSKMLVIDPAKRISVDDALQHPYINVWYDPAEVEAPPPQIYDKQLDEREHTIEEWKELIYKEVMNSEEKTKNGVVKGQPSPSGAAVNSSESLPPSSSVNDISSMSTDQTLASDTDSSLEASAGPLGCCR

[7] = biological target: T1, Tyrosine-protein kinase BTK; assay: Selectivity interaction (SelectScreen profiling (Invitrogen)) EUB0000607a BTK; conditions: at 2 µM
[8] = biological target: Tyrosine-protein kinase SYK (Homo sapiens, UniProt P43405); assay: Selectivity interaction (KinomeScan (DiscoverX)) EUB0000607a SYK; conditions: at 10 µM
[9] = biological target: T4, Scaffold protein ILK (Homo sapiens) (UniProt Q13418); assay: Selectivity interaction (Kinase panel (KiNativ target engagement assay in Jurkat cells)) EUB0001635a ILK; format: cell-based; conditions: Selectivity number of off-targets 0.0, Selectivity number of targets 233.0, Source Knowledge https://www.sciencedirect.com/science/article/pii/S2451945619300674?via%3Dihub, at 1 µM
T4 sequence (whole entry): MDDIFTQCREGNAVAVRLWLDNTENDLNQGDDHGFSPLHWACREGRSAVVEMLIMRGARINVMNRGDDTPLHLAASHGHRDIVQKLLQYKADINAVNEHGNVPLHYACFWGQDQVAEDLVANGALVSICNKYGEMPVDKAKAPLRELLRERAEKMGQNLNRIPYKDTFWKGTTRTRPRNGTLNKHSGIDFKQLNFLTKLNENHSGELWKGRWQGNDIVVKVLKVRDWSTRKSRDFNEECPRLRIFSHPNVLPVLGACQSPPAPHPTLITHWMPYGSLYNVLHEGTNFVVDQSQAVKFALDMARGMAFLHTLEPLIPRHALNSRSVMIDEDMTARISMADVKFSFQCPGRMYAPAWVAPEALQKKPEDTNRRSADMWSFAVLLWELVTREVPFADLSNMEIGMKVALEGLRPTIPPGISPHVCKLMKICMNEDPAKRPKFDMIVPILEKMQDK

T1 sequence (Q06187 whole entry): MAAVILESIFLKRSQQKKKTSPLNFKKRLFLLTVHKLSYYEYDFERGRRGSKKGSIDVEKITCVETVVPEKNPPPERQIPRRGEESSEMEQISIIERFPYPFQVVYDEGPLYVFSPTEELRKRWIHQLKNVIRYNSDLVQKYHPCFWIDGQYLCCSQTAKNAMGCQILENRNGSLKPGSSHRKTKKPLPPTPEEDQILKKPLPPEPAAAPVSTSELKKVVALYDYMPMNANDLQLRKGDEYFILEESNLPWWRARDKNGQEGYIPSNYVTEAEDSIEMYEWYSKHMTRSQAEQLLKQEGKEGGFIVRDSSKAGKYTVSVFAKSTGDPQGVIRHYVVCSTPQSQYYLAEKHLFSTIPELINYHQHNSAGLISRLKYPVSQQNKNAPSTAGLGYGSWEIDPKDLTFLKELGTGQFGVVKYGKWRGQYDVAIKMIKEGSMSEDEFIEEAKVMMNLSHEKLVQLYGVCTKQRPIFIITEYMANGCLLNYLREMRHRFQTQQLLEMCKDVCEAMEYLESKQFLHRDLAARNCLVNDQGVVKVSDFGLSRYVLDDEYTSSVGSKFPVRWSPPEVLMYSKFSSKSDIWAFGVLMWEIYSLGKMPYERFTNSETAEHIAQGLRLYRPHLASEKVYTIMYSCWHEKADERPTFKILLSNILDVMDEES

Structure (SMILES): CC[C@@H]1[C@H](F)C(=O)N[C@@H]1COc1nccc2cc(C(N)=O)c(OC)cc12 [ZIMLOVISERTIB]
% of inhibition [1]: -4.4%
% of inhibition ([2]; at 0.01 µM): 1.5%
% of inhibition ([2]; at 0.04 µM): -2.5%
% of inhibition ([2]; at 0.2 µM): 7.8%
% of inhibition ([2]; at 1 µM): 6.7%
% of inhibition ([2]; at 5 µM): -16.4%
% of inhibition ([3]; at 0.01 µM): -12.7%
% of inhibition ([3]; at 0.04 µM): -16.1%
% of inhibition ([3]; at 0.2 µM): -5.4%
% of inhibition ([3]; at 1 µM): -3.3%
% of inhibition ([3]; at 5 µM): -18.6%

Structure (SMILES): N#Cc1cccc(-c2c[nH]c3ncnc(N4CCOCC4)c23)c1
% of inhibition [5]: 13%

Structure (SMILES): CNC(=O)Nc1ccc(-c2nc(N3CC4CCC(C3)O4)c3cnn(C4CCC5(CC4)OCCO5)c3n2)cc1
% of inhibition [7]: 3%
% of control [8]: 100%

Structure (SMILES): C=CC(=O)Nc1ccc(C(=O)Nc2[nH]nc3c2CN(C(=O)N[C@H](CN(C)C)c2ccccc2)C3(C)C)cc1
% of engagement [9]: -11.5%

The next lines start with the values.

% of control ([4]; at 1 µM): 77%
% of control ([4]; at 5 µM): 54%
Structure (SMILES): C=CC(=O)Nc1cccc(C(=O)Nc2ccc(Nc3cc(-c4[nH]c(SC)nc4C)ccn3)cc2)c1

dTM [6]: -0.8 K
Structure (SMILES): CN(C(=O)c1cnn2cccnc12)c1cc2c(cc1N1CCOCC1)C(=O)N(C[C@@H](F)C(C)(C)O)C2
